Results from patent publication US20130315886A1, “RETROELEMENTS AND MENTAL DISORDERS AND METHODS OF MEASURING L1 RETROTRANSPOSITION” (Salk Institute for Biological Studies, priority 2009, published 2013).

Tests used:
L1 5′UTR promoter = test: L1 5′UTR-Luc luciferase reporter assay in MeCP2 KO neuroepithelial cells; assay type: cell-based, mouse; conditions: Sox2 overexpression in MeCP2 KO neuroepithelial cells
Method: Rat NSCs were isolated, characterized and cultured as described (31,32). For neuronal differentiation, cells were cultured in N2 medium (Invitrogen) containing retinoic acid (RA, 1 μM, Sigma) and forskolin (5 μM, Sigma) for 4 days (11). Freshly isolated neuroepithelial cells from time-pregnant midgestation (E11.5) telencephalons from WT and MeCP2 KO sibling mouse embryos from the same background (C57BL/6J) were briefly cultured for 2-3 passages in FGF-2 as described elsewhere (19). Primary skin fibroblasts were isolated from tail biopsy and cultured in DMEM (Invitrogen) with 10% FBS (Invitrogen). Samples of all isolated cells were used for genotyping using previously described primers (33). Plasmid transfections were done by electroporation following the manufacturer's instructions (Amaxa Biosystem).
The L1 5′UTR-Luc plasmid was methylated by […] according to the manufacturer's protocol. Complete methylation was checked by digestion with Hpa II restriction enzyme. Luciferase activity was measured with the Dual-Luciferase reporter assay system (Promega) according to the manufacturer's protocol. Luciferase activity was usually measured 48 h after transfection. A plasmid containing the Renilla luciferase gene was used as an internal control. All the experiments were done at least 3 times independently and transfection efficiency was about 30% for all samples. […]

[1] = system: L1 promoter region (5′UTR); test: Chromatin immunoprecipitation (ChIP) on the endogenous rat L1 promoter region in NSCs; assay type: cell-based; conditions: 500 ng/ml, 4 days
Description: ChIP assay was done essentially following the manufacturer's protocol using a ChIP assay kit (Upstate). Antibodies used were anti-MeCP2 (Upstate), Sox2 (Chemicon), and IgG. Purified DNA was amplified by PCR using primers for the rat L1 5′UTR promoter region (L1.3, accession # X03095).

MeCP2 and Sox2 = test: Co-immunoprecipitation between MeCP2 and Sox2 in NSCs; assay type: cell-based, rat; conditions: in the presence of 5-Aza
Method: Immunofluorescence for EGFP was performed as previously described (11). A non-transgenic animal was used to measure the background fluorescence in the brain and to establish a threshold for detection. Western blotting was carried out using standard protocols with the following antibodies: mouse anti-Actin (1/500, Ambion), rabbit anti-MeCP2 (1/1000, Imgenex or Upstate), and rabbit anti-Sox2 (1/100, Chemicon). All secondary antibodies were purchased from Jackson ImmunoResearch. For co-immunoprecipitation, the Nuclear Complex Co-IP kit (Active Motif) was used, following the manufacturer's protocol with the highest stringency buffers.

L1 5′UTR CpG islands = test: Bisulfite analysis of L1 5′UTR DNA methylation in NSCs; assay type: cell-based, rat; conditions: treatment for 4-days
Method: Genomic DNA from NSCs was isolated using standard phenol-chloroform extraction techniques. Subsequently, DNA was digested with the restriction enzyme EcoRI and the bisulfite conversion reaction was performed using the Epitect kit (Quiagen), following manufacturer's instructions. Primers were designed based on the rat L1 sequence Mlvi2, using Methyl Primer Express; […]. PCR products were cloned into TOPO TA 2.1 plasmids (Invitrogen) and 40 bacterial colonies were analyzed by sequencing.

Compound | reduction of luciferase expression (L1 promoter activity) (L1 5′UTR promoter) | MeCP2 ChIP signal / association to the L1 promoter region [1] | Sox2 binding / association to the L1 promoter region (ChIP) [1] | MeCP2 ChIP signal / association to the L1 promoter region ([1]; listed as 5-Azacitidine) | Sox2 binding / association to the L1 promoter region (ChIP) ([1]; listed as 5-Azacitidine) | amount of MeCP2 in association with Sox2 in solution (Co-IP) (MeCP2 and Sox2) | methylation of the 5′UTR L1 region (5 CpG sites, bisulfite) (L1 5′UTR CpG islands)
Sox2: transcriptional factor Sox2, overexpressed in MeCP2 KO neuroepithelial cells | approximately 50% |  |  |  |  |  | 
Nc1ncn([C@@H]2O[C@H](CO)[C@@H](O)[C@H]2O)c(=O)n1 [5-Azacytidine] |  | the MeCP2 ChIP signal was lost | did not prevent Sox2 binding to the L1 promoter | reduced MeCP2 | not Sox2 association | increased the amount of MeCP2 in association with Sox2 in solution | completely removed methyl radicals
